Assay results: patent publication US20030099600A1, “Metalloproteinase inhibitors for the treatment of respiratory diseases” (priority 2000, published 2003)

Key:
MMP-2 = test: Lung tissue study: MMP-2 released by human lung tissue in vitro (ELISA); assay type: cell-based; conditions: 24 hours; for MMP-2 % of IL-1: 100 U/ml IL-1 stimulated; for MMP-2 % of control: unstimulated fragments
Experimental: (§1) This study was done to assess the effects of doxycycline on the release of matrix metalloproteinases by human lung tissue in vitro.
(§2) On the following day, 2-3 fragments (total weight 50 mg) were placed in 0.8 ml of culture buffer and 0.1 ml of doxycycline (to give a final concentration of 10^−4-10^−8M) or a buffer control was added.
(§3) After one hours incubation at 37° C., the fragments were treated with either 0.1 ml of either a buffer control (unstimulated fragments) or 1000 U/ml interleukin-1 (final concentration of 100 U/ml IL-1). The fragments were then incubated for 24 hours and the supernatant recovered; the tissue was weighed and stored at −70° C.
(§4) The MMPs and TIMPs released into the supematant were measured using commercial ELISAs (Amersham); values were expressed as ng of MMP/TIMP per mg of lung tissue.
MMP-2 levels are analysed by Elisa plates (Code No. RPN2617) from Amersham Pharmecia Biotech UK Limited, Amersham Place, Little Chalfont, BUCKS HP7 9NA.
(§5) The Elisa is run as per manufacturer's instructions.
This Elisa is specific for proMMP-2; recognising free proMMP-2 and MMP-2 complexed to TIMP-2, but not the active form of MMP-2. No cross-reactivity with MMP-1, 3, 7, 8, 9 and MT1-MMP.

[1] = oral route; cited from earlier work
TIMP-1 [2] = test: Lung tissue study: TIMP-1 released by human lung tissue in vitro (ELISA); assay type: cell-based; conditions: 24 hours; for TIMP-1 % of IL-1: 100 U/ml IL-1 stimulated; for TIMP-1 % of control: unstimulated fragments
Experimental: as §1, §2, §3, §4

MMP-9 [3] = test: Lung tissue study: MMP-9 released by human lung tissue in vitro (ELISA); assay type: cell-based; conditions: 24 hours; for MMP-9 % of IL-1: 100 U/ml IL-1 stimulated; for MMP-9 % of control: unstimulated fragments
Experimental: as §1, §2, §3, §4

TIMP-1 [4] = test: Human study in COPD subjects: TIMP-1 levels (ELISA); assay type: in vivo; conditions: for TIMP-1 % of control: capsules 50, 100, 200 mg ascending, 3 days each, 4-day wash out
Experimental: (§6) This was an open-label, ascending dose, cross-over study. Suitable subjects with chronic obstructive pulmonary disease (COPD) had their respiratory function assessed at baseline and provided sputum and blood for MMP and doxycycline levels. They then received 50 mg, 100 mg and 200 mg of doxycycline capsules for a period of 3 days in ascending order. At the end of each treatment period a further assessment of respiratory function was performed, and a sputum and blood sample was analysed for MMP, TIMP-1 and doxycycline levels. There was a 4-day wash out period between each treatment period of the study. The MMPs and TIMPs released were measured using commercial ELISAs as detailed above for the lung tissue study.

MMP-9 [5] = test: Human study in COPD subjects: MMP-9 levels (ELISA); assay type: in vivo; conditions: for MMP-9 % of control: capsules 50, 100, 200 mg ascending, 3 days each, 4-day wash out
Experimental: as §6

MMP-1 = test: Lung tissue study: MMP-1 released by human lung tissue in vitro (ELISA); assay type: cell-based; conditions: 24 hours; for MMP-1 % of IL-1: 100 U/ml IL-1 stimulated; for MMP-1 % of control: unstimulated fragments
Experimental: as §1, §2, §3, §4
MMP-1 levels are analysed by Elisa plates (Code No. RPN2610) from Amersham Pharmacia Biotech UK Limited, Amersham Place, Little Chalfont, BUCKS HP7 9NA.
as §5
This Elisa is specific for total MMP-1; recognising pro MMP-1, active MMP-1 and MMP-1/TIMP-1 complex.

[6] = route of administration that avoids first-pass metabolism; cited from earlier work
[7] = Mean of study days 4, 8, 11, 15, 18, COPD subjects

C[C@H]1c2cccc(O)c2C(=O)C2=C(O)[C@]3(O)C(=O)C(C(N)=O)=C(O)[C@@H](N(C)C)[C@@H]3[C@@H](O)[C@@H]21 [doxycycline]
MMP-2 % of IL-1 (MMP-2; 10^-4 M): 49.23%
MMP-2 % of control (MMP-2; 10^-4 M): 34.34%
MMP-2 % of IL-1 (MMP-2; 10^-6 M): 86.86%
MMP-2 % of control (MMP-2; 10^-6 M): 219.33%
MMP-2 % of IL-1 (MMP-2; 10^-8 M): 95.75%
MMP-2 % of control (MMP-2; 10^-8 M): 101.47%
protein binding [1]: very highly protein-bound
TIMP-1 % of IL-1 (TIMP-1 [2]; 10^-4 M): 75.47%
TIMP-1 % of control (TIMP-1 [2]; 10^-4 M): 44.49%
TIMP-1 % of IL-1 (TIMP-1 [2]; 10^-6 M): 508.92%
TIMP-1 % of control (TIMP-1 [2]; 10^-6 M): 182.40%
TIMP-1 % of IL-1 (TIMP-1 [2]; 10^-8 M): 461.92%
TIMP-1 % of control (TIMP-1 [2]; 10^-8 M): 172.02%
MMP-9 % of IL-1 (MMP-9 [3]; 10^-4 M): 51.04%
MMP-9 % of control (MMP-9 [3]; 10^-4 M): 39.36%
MMP-9 % of IL-1 (MMP-9 [3]; 10^-6 M): 99.29%
MMP-9 % of control (MMP-9 [3]; 10^-6 M): 116.84%
MMP-9 % of IL-1 (MMP-9 [3]; 10^-8 M): 127.04%
MMP-9 % of control (MMP-9 [3]; 10^-8 M): 113.57%
TIMP-1 % of control (TIMP-1 [4]; Day of Study 4, COPD subjects): 116.24%
TIMP-1 % of control (TIMP-1 [4]; Day of Study 15, COPD subjects): 974.24%
TIMP-1 % of control, Mean (TIMP-1 [4]; [7]): 978.67%
increase in TIMP-1 (TIMP-1 [4]; human patient study): 10 fold
upregulation of TIMP-1 in COPD sputum, % of untreated levels (TIMP-1 [4]; repeated dosing at 100 mg once daily): about 1000%
MMP-9 % of control (MMP-9 [5]; Day of Study 4, COPD subjects): 39.43%
MMP-9 % of control (MMP-9 [5]; Day of Study 8, COPD subjects): 12.85%
MMP-9 % of control (MMP-9 [5]; Day of Study 11, COPD subjects): 29.17%
MMP-9 % of control (MMP-9 [5]; Day of Study 15, COPD subjects): 22.41%
MMP-9 % of control (MMP-9 [5]; Day of Study 18, COPD subjects): 29.03%
MMP-9 % of control, Mean (MMP-9 [5]; [7]): 26.58%
reduction in MMP-9 activity (MMP-9 [5]; human patient study): 73%
MMP-1 % of IL-1 (MMP-1; 10^-4 M): 14.75%
MMP-1 % of control (MMP-1; 10^-4 M): 24.05%
MMP-1 % of IL-1 (MMP-1; 10^-6 M): 61.47%
MMP-1 % of control (MMP-1; 10^-6 M): 84.10%
MMP-1 % of IL-1 (MMP-1; 10^-8 M): 51.87%
MMP-1 % of control (MMP-1; 10^-8 M): 76.50%
lung concentration relative to the level in plasma [6]: up to 10 times
